Literature values as cited in patent publication US5597829A, “Lactone stable formulation of camptothecin and methods for uses thereof” (priority 1994, dated 1997).

How the values were obtained:
[1] = tested on: LD1210 leukemia; conditions: 10-100 mg/kg intraperitoneally; cited from earlier work
[2] = human subjects; cited from earlier work
[3] = in vivo, iv; cited from earlier work
[4] = tested on: topoisomerase I in P388 cells; conditions: cited from earlier work
[5] = tested on: P388 tumor; conditions: intermittent bolus (days 1, 5, and 9), i.p.; cited from earlier work
[6] = tested on: MOLT3 cells; conditions: cited from earlier work

| SMILES | T/C (treated/control) ratios [1] | correlation of HECPT pharmacokinetics with dose or of CPT-11 pharmacokinetics with toxicity [2] | overall fractional concentration of the lactone species over dose range [3] | greater inhibitory activity than CPT-11 against topoisomerase I [4] | anti-tumor activity compared to CPT-11 [5] | more potent than CPT-11 in generating single-strand DNA breaks [6] |
| --- | --- | --- | --- | --- | --- | --- |
| CCc1c2c(nc3ccccc13)-c1cc3c(c(=O)n1C2)COC(=O)[C@]3(O)CC [ECPT, 7-ethyl camptothecin] | inferior to that of CPT-11 administration under the same conditions |  |  |  |  |  |
| CCc1c2c(nc3ccc(O)cc13)-c1cc3c(c(=O)n1C2)COC(=O)[C@]3(O)CC [HECPT, 10-hydroxy 7-ethyl camptothecin] | inferior to that of CPT-11 administration under the same conditions | lack of correlation | fairly constant | 3600 fold | little anti-tumor activity compared to CPT-11 | approximately 1000 fold |
